Here are results for nine molecules from patent publication US5587463A, “Texaphyrin macrocycles and metal complexes thereof” (Board of Regents, The University of Texas System, priority 1994, dated 1996).

The nature of series [1]: Hydrolysis in aqueous acid. It counts as physicochemical. An excerpt:
(§1) Attempts to demetallate complex 3A .cndot.NO3 were made. In an effort to obtain the free sp^2 bridged ligand 2A, the above complex in chloroform was stirred for several hours in the presence of sodium sulfide and independently with sodium thiosulfate. […] In the case of sodium sulfide, this critical conclusion was further supported by FAB MS: Other than the starting cationic complex 3A, no evidence was obtained for any moderate to high molecular weight volatile products in the mass spectrum. […] The rate of this process, however, is strongly pH dependent, the half-life being, for instance, on the order of several hours in the presence of ca. 0.1N HCl.

Series [2] in a line: Axial base binding of pyridine, 1H NMR spectral titration. An excerpt: (§2) For a rigorously five coordinate starting cadmium complex, such as that represented schematically by structure 3A, where neither the counter anion nor adventitious ligands serves to occupy an apical coordination site, base binding can be considered to occur in accord with equations (1) and (2) shown below. Under conditions where K1 […]K2, these processes can be considered to occur sequentially, giving first a monoligated, presumably pentagonal pyramidal six coordinate species (such as 4bA), followed by a coordinatively saturated bisligated pentagonal bipyramidal product akin to 5aA. Where, however, K2 >>K1this stepwise conceptual approach is invalid. Under these conditions, it becomes easier to analyze the base binding in terms of direct formation of the bisligated material as shown in equation (3).
(§3) L+B LB K1 =[LB]/[L][B] (1)
(§4) LB+B LB2 K2 =[LB2 ]/[LB][B] (2)
(§5) L+2B LB2 K1 K2 =[LB2 ]/[L][B]^2 (3)
(§6) The ^1 H NMR titration of 3A .cndot.NO3 with BzIm or pyr-D5 was done. Rigorously purified complex 3A .cndot.NO3 was dried at 80° C. under reduced pressure (1 mmHg) for 1 day. Starting samples for titration were then prepared by dissolving this five coordinate complex (3.32 mg, 0.005 mmol) in 0.7 to 0.75 ml of CDCl3 and transferring quantitatively to an NMR tube. To such samples were then added increasing aliquots of either BzIm or pyr-D5 (as solutions of known concentration in CDCl3) and recording the chemical shift of the "meso" protons at 27^Q C. Control experiments were also carried out by adding known quantities of CF3 CO2 H, D2 O, and NH4 NO3 to similar stock solutions of 3.cndot.NO3.
The changes in "meso" proton chemical shift as a function of added [pyr] shown in FIG. 15 indicate a clear […] of two distinct binding regimes. Moreover as expected, attempts to fit the data as a simple monoligation process (to give 6CN material) according to eq. […] This was done using the convenient iterative procedure outlined by Connors.^38 Here the equations of interest, corresponding to eqs. 4.31 and 4.32 of Connors,^38 as adopted for NMR analyses, are:
[pyr]{Δ12 /(δ-δo)-1}-K1 (7)
(δ-δo) {1+K1 [pyr]+K1 K2 [pyr]^2
where δ is the observed chemical shift, δo is the initial chemical shift of the pure five coordinate starting complex 3.cndot.NO3, All is the total chemical shift difference corresponding to the formation of the pure putative monoligated six coordinate species, Δ12 is the total chemical shift corresponding to the formation of the bisligated cationic species 5a from the initial five coordinate material, and [pyr] is the free pyridine concentration. A precise expression for [pyr] is given by equation 9,^38 where [pyr]o is the concentration total added pyridine, and [lig]o represents the concentration of the starting five coordinate ligand 3A .cndot.NO3.
[pyr]o =[pyr]+[lig]o (K1 [pyr]+2K1 K2
[pyr]^2)/(1+K1 [pyr]+K1 K2 [pyr]^2)(9)
Initial iterative solutions of eqs. 7 (plotting 1/[pyr]-K1 Δ11 /(δ-δo) vs. [pyr]{Δ12 /δ-δo)-1}, giving K1 K2 and -K1 as the slope and intercept respectively) and 8 (plotting (δ-δo) {1+K1 [pyr]+K1 K2 [pyr]^2 }/[pyr] vs. [pyr], giving K1 K2 Δ12 and K1 Δ11 as the slope and intercept respectively) were therefore made using this greatly simplifying assumption. They converged quickly to give initial, uncorrected values of K1 =1.5M^-1 and K1 K2 =308M^-2. […]

Series [3] can be described thus: Stability to demetallation (sulfide, thiosulfate). To be noted: for demetallation by sulfide: aqueous Na2 S / excess sulfide anion. Format: physicochemical.
Text: The above K1 and K2 (or K1 K2) values are predicated on the assumption that the cadmium complexes under discussion are stable with regards to demetallation and that the equilibria of equations 1 and 2 (or 3) pertain under the conditions of base binding. The first of these concerns is readily apparent: If demetallation occurs, then obviously one is not studying base binding! […] The second concern is particularly important within the context of quantitative work: If, for instance, the starting complex 3.cndot.NO3 is not rigorously five coordinate, then K1 (and perhaps K2 as well) would represent an axial ligand displacement reaction rather than a pure addition process as implied above. Control experiments indicate that the assumption of initial five coordination is reasonable: Independent titrations of 3A .cndot.NO3 with NH4 NO3 and H2 O indicate that only modest and monotonic changes in the chemical shift of the "meso" signals take place over the course of adding ≥50 equivalents of these potentially adventitious ligands.^40 This means that either "complete" binding occurs at 1:1 stoichiometry (essentially ruled out in the case of H2 O on the basis of analytical data), or that these species are poorly coordinating in CHCl3 so that five coordination pertains about cadmium; the latter interpretation appearing more likely.
as §1

The nature of series [4]: Axial base binding of benzimidazole, 1H NMR spectral titration. To be noted: for conversion to six coordinate form (4bA): ca. 5×10^-3 M.
Text: as §2, §3, §4, §5, §6
Determination of Binding Constants. […] The chemical shift data obtained for the "meso" signals as a function of added BzIm were thus analyzed as such at both very low and very high conversion: Standard Scatchard (single reciprocal) plots^38 were constructed by plotting (δ-δo)/[BzIm] vs (δ-δo) according to equation 4 (which corresponds to eq. 5.13 of ref. 38), obtaining K as the absolute value of the slope and the term (δ.infin. -δo)K as the intercept.
(δ-δo)/[BzIm]=-K(δ-δo)+(δ.infi
Here δ is the observed chemical shift, δo is the initial chemical shift of the pure five or six coordinate starting complex (3A .cndot.NO3 or 4bA --NO3), δ.infin. the chemical shift calculated for the final mono- or bisligated complexes 4bA .cndot.NO3 or 5aA .cndot.NO3, K the equilibrium constant in question, and [BzIm] the concentration of free, uncomplexed benzimidazole. […] This was done in a straightforward manner according to the expressions given in equations 5 and 6, where [lig]o represents the concentration of the starting five coordinate ligand 3A .cndot.NO3.
(δ-δo)/δ.infin. -δo) at low
[BzIm].congruent.[BzIm]o -[lig]o at high [BzIm]o (6)
Using these corrected values for [BzIm], straight line Scatchard plots were obtained with R[…]0.99 and 0.98 respectively for the low and high [BzIm]o regimes giving values of K1 and K2 of 1.80×10^4 M^-1 and 12.9 M^-1 respectively.

Series [5] is described as follows: Optical and photophysical properties of metallotexaphyrins (laser flash photolysis, fluorescence, singlet oxygen luminescence). Format: physicochemical. To be noted: CH3 OH; for Absorption gmax (Soret-type band): first value (Soret); for Absorption gmax (Q-type band): second value (Q-type); for D^1 O2 (singlet oxygen quantum yield) / Df (fluorescence quantum yield): ±10%. The arrangement: tt (triplet lifetime): unit not given here. From the text: Finally, several complexes containing paramagnetic metal ions (e.g. Mn^II, Sm^III, and Eu^III, structures 5c -7c) were investigated.
Comparison of the initial intensity with that obtained using tetrakis (4-hydroxyphenyl)porphyrin (THPP) as photosensitizer^3b under identical conditions allowed calculation of the quantum yields for production of singlet oxygen (^.phi. 1.cndot.2).

On the set-up of series [6]: tt (triplet lifetime): unit not given here. To be noted: benzene, see reference 4, cited from earlier work.

Where two headings read alike, the source gives them in different places. A value given as a limit tells only on which side of the number the result lay.

As for `CCC1=C(C)C2=[N+]3C1=Cc1c(CC)c(CC)c4[n]1[Cd-3]315[N+](=C2)c2ccccc2[N+]1=CC1=[N+]5C(=C4)C(CC)=C1C.O=[N+]([O-])[O-]` [3A .cndot.NO3], the “hydrolysis in aqueous acid” value in series [1] is “appears to undergo hydrolysis (at the imine residues) and hence demetallation”. The half-life for hydrolysis/demetallation result in series [1] (ca. 0.1N HCl) is reported as “several hours”. The “conversion to pentagonal bipyramidal product (5aA)” value in series [2] (3 equivalents of pyridine) was “ca. 5%”; in series [2] (10 equivalents of pyridine), “roughly 35%”. Also, the “K1 K2 (pyridine)” value in series [2] (CDCl3, final values, estimated error ≤10%) was 315 M^-2; in series [2] (CDCl3, final values, estimated error ≤10%, listed as 3A.cndot.NO3), 315±30 M^-2; in series [2] (initial, uncorrected), 308 M^-2. Moreover, in series [3], the demetallation by sulfide result is “little or no demetallation occurs”. Moreover, the “changes in optical properties on treatment with sodium sulfide or sodium thiosulfate” value in series [3] (chloroform, several hours) is recorded as “No significant changes in optical properties were observed”. Moreover, the “conversion to six coordinate form (4bA)” value is reported as “roughly 20%” in series [4] (0.2 molar equivalents of BzIm) and 90% in series [4] (1.0 molar equivalent of BzIm). Moreover, in series [4] (CDCl3, iterative approach), the “K1 K2 (benzimidazole)” value is listed as 1.9×10^5 M^-2. Besides, the Kd in series [4] (CDCl3, iterative approach, read-out: K1 (benzimidazole) (converted)) is 50 µM; in series [4] (CDCl3, very high conversion, read-out: K2 (benzimidazole) (converted)) it was 76900 µM; in series [4] (CDCl3, very low conversion, read-out: K1 (benzimidazole) (converted)) it was 55.6 µM.

`CCC1=C(C)c2cnc3ccc(Cl)cc3ncc3nc(cc4[n-]c(cc1n2)c(CC)c4CC)C(CC)=C3C.O=[N+]([O-])[O-].[Cd+2]` [4C NO3]: in series [5], the Emission gmax was 788 nm, the “S (= phi 1O2 / phi t)” value is on record as 0.76, the “Absorption gmax (Soret-type band)” value stood at 421 nm and the “Absorption gmax (Q-type band)” value came to 760 nm. Also, in series [5], the “D^1 O2 (singlet oxygen quantum yield)” value worked out at 0.74 and the “Df (fluorescence quantum yield)” value is recorded as 0.009. The “tt (triplet lifetime)” value in series [5] (deoxygenated) is on record as 36. The “Dt (triplet quantum yield)” value in series [5] (±5%) is recorded as 0.97.

`CCC1=C(C)c2cnc3ccccc3ncc3nc(cc4[n-]c(cc1n2)c(CC)c4CC)C(CC)=C3C.[Cd+2].c1ccc2[nH]cnc2c1` [4bA]: in series [4] (10 molar equivalents of BzIm), the “conversion to bisligated seven coordinate form (5bA)” value is given as 35%.

With `CCC1=C(C)c2cnc3ccccc3ncc3nc(cc4[n-]c(cc1n2)c(CC)c4CC)C(CC)=C3C.[Mn+2].[OH-]` [5C OH], in series [5], the “Absorption gmax (Soret-type band)” value is on record as 420 nm, the “Absorption gmax (Q-type band)” value is on record as 760 nm, the “D^1 O2 (singlet oxygen quantum yield)” value is on record as below 0.05 and the “Df (fluorescence quantum yield)” value is reported as below 0.001.

As for `CCC1=C(C)c2cnc3cc(C)c(C)cc3ncc3nc(cc4[n-]c(cc1n2)c(CC)c4CC)C(CC)=C3C.[OH-].[OH-].[Sm+3]` [6C (OH)2], in series [5], the “Absorption gmax (Soret-type band)” value is 450 nm, the “Absorption gmax (Q-type band)” value is on record as 763 nm, the “D^1 O2 (singlet oxygen quantum yield)” value is reported as below 0.05 and the “Df (fluorescence quantum yield)” value is below 0.001.

Regarding `CCC1=C(C)c2cnc3cc(C)c(C)cc3ncc3nc(cc4[n-]c(cc1n2)c(CC)c4CC)C(CC)=C3C.[Eu+3].[OH-].[OH-]` [7C (OH)2], in series [5], the “Absorption gmax (Soret-type band)” value is 451 nm, the “Absorption gmax (Q-type band)” value was 762 nm, the “D^1 O2 (singlet oxygen quantum yield)” value was below 0.05 and the “Df (fluorescence quantum yield)” value was below 0.001.

Take `C1=Cc2nc1c(-c1ccccc1)c1ccc([nH]1)c(-c1ccccc1)c1nc(c(-c3ccccc3)c3ccc([nH]3)c2-c2ccccc2)C=C1.[Cd].c1ccncc1` [CdTPP(pyr), reference compound]: the demetallation by sulfide result in series [3] is “leads to cation loss and precipitation of CdS”.

Turning to `CCCCCC[Si](CCCCCC)(CCCCCC)O[Si]1(O[Si](CCCCCC)(CCCCCC)CCCCCC)n2c3c4cc5ccccc5cc4c2N=C2N=C(N=c4c5cc6ccccc6cc5c(n41)=NC1=NC(=N3)c3cc4ccccc4cc31)c1cc3ccccc3cc12` [SiNC, bis(trin-hexylsiloxy)(2,3-naphthalocyaninato) silicon], in series [6], the “Absorption gmax (first value)” value is 310 nm, the “Absorption gmax (second value)” value was 776 nm, the Emission gmax is 780 nm and the “S (= phi 1O2 / phi t)” value is 0.90. For the same molecule, the “tt (triplet lifetime)” value in series [6] is 331. For the same molecule, in series [6] (±5%), the “Dt (triplet quantum yield)” value was 0.39. Further, the “D^1 O2 (singlet oxygen quantum yield)” value in series [6] (±10%) was 0.35.

For the molecule `CCC1=C(C)c2cnc3ccccc3ncc3nc(cc4[n-]c(cc1n2)c(CC)c4CC)C(CC)=C3C.[Cd+2].c1ccncc1.c1ccncc1` [complex 4], the “hydrolysis in aqueous acid” value in series [1] is “leads to hydrolysis of the macrocyle”. Besides, the demetallation by sulfide entry in series [3] is recorded as “no demetallation takes place”. Also, the “stability relative to cadmium porphyrins” value in series [3] (neutral conditions / base binding controls) is given as “more stable than cadmium porphyrins”.
